Article PMC12526212, “Novel Isolongifolenone-Based Caprolactam Derivatives as Potential Anticancer Agents via the p53/mTOR/Autophagy Pathway” (Molecules, 2025)

Columns and labels:
MCF-7 xenograft = assay: Zebrafish MCF-7 xenograft model; type: in vivo
Excerpt: Zebrafish have become a well-established model for both anticancer drug discovery and toxicity evaluation. This animal model affords several unique advantages, including rapid development, optical transparency, and genetic conservation with humans. These features make zebrafish particularly suitable for high-throughput in vivo screening and mechanistic studies in oncology research. Tumor burden in zebrafish xenografts is commonly quantified from Dil/DiI-labeled fluorescence area or integrated intensity, which correlates with cell number and treatment response. To assess the in vivo antitumor efficacy of compound E10, we established a zebrafish xenograft model. Briefly, CM-Dil-labeled MCF-7 cells (showing red fluorescence) were microinjected into the yolk sacs of zebrafish embryos. The xenografted zebrafish were then randomly assigned into five groups: three E10-treatment groups (0.5 µg/mL, 1.0 µg/mL, and 2.0 µg/mL), a Doxorubicin (Dox) positive control group, and a PBS negative control group.
All experimental procedures were approved by ACUC of Shandong Academy of Sciences (Animal Care and Use Committee). Wild-type AB of zebrafish were obtained from Biology Institute, Qilu University of Technology. The embryos were incubated in special embryonic medium (0.17 mM KCl, 5.0 mM NaCl, 0.4 mM CaCl2, and 0.16 mM MgSO4) at 28 °C. 48 h-old zebrafish embryos were microinjected with CM-Dil labelled MCF-7 cells under stereomicroscopy. After injection, zebrafish embryos with the same injection spot were randomly planted on a six-well plate. These xenograft zebrafish were sorted into four groups of about 15–20 zebrafish each and treated with 0.5, 1.0, 2.0 μg/mL of compound E10 for 48 h, 1.0 μM doxorubicin as a positive control group. After treatment, the fluorescence intensity of living cells was examined with laser confocal microscopy (Olympus, Tokyo, Japan).

MCF-7 cells = assay: Comet assay (DNA damage); type: cell-based, human; details: 24 h
Experimental: DNA fragmentation is a hallmark of apoptosis, mitotic catastrophe, or both. DNA damage in MCF-7 cells was investigated by single-cell gel electrophoresis in an agarose gel matrix (the ‘comet assay’). In this assay, the length of the ‘comet tail’ observed after EB staining of the cell nuclei is an indicator of the extent of DNA damage.
MCF-7 cells were seeded in 24-well plastic plates at a density of 5 × 10^4 cells per well and treated with compound E10 for 24 h. The alkaline DNA comet assay was performed according to the instructions of the OxiSelectTM Comet Assay Kit (Cell Biolabs, San Diego, CA, USA, Cat. # STA-350) and analyzed using a Zeiss fluorescent microscope (Jena, Germany). The free software Casplab-1.2.3b2 (CAS PLab, Wroclaw, Poland) was used to calculate the percentage of tail DNA and Olive Tail Moment (OTM) as markers of DNA damage (Olive Tail Moment = Tail DNA (%) × Tail Moment Length).

CC1(C)C2=CC(=O)N(C(=O)C=Cc3cccc(C(F)(F)F)c3)CC(C)(C)C23CCC1C3 (stereo not drawn) [E10, 5,5,9,9-Tetramethyl-3-(3-(3-(trifluoromethyl)phenyl)acryloyl)-4,5,6,7,8,9-hexahydro-5a,8-methanobenzo[d]azepin-2(3H)-one]
inhibition rate (decrease in fluorescence) (MCF-7 xenograft; 2.0 µg/mL E10, 48 h): 50.0%
fluorescence intensity of xenograft (MCF-7 xenograft; 48 h, compared with PBS control, Dox 1.0 μM): notable reduction in fluorescence intensity
DNA damage, comet formation (MCF-7 cells): induced DNA fragmentation
